pKi: −log10 of the molar value.
Experiments:
[1] = target: human α2β3γ2 receptor (α2-GABAA receptor) (Homo sapiens (Human), UniProt P18507+P47869); test: Radioligand (3H-flunitrazepam) competition binding assay, BZD site; α2 vs α5 binding selectivity; settings: ratio of Ki at α2β3γ2 to Ki at α5β3γ2
Excerpt: α, β and γ subunits are essential for the formation of a complete functional GABAA receptor. In this example, HEK293 cell strains stably expressing human α5-GABAA receptor (comprising α5β3γ2 subunit) and α2-GABAA receptor (comprising α2β3γ2 subunit) were constructed and screened, respectively, by liposome transfection method (Felgner, P. L., et al., Proceedings of the National Academy of Sciences, 1987, 84:7413-7417). The specific subunit protein sequences are as follows: α5 subunit (protein sequence can be found in GenBank accession number: NM_000810.3); α2 subunit (protein sequence can be found in GenBank accession number: NM_000807.4); β3 subunit (protein sequence can be found in GenBank accession number: NM_000814.5); γ2 subunit (protein sequence can be found in GenBank accession number: NM_000816.3).
The above cell lines were subcultured. Amplification of α5β3γ2-HEK293 and α2β3γ2-HEK293 cells was used to test the affinity of the compounds to benzodiazepine site (BZD) of the GABAA receptor. During the passage of α5β3γ2-HEK293 cells, some of the suspended cells were spread on a glass slide pretreated with Poly-D-Lysine for electrophysiological testing.
Flunitrazepam is a non-specific reagent that binds to the BZD site efficiently. The affinity of the compounds to the BZD sites of the human α5β3γ2 and α2β3γ2 receptors can be determined by competing the compound with ^3H-flunitrazepam (isotope ^3H-labeled flunitrazepam) for binding to these two receptors.
Membrane preparation: HEK293 cells stably expressing human α5β3γ2 receptor or α2β3γ2 receptor were collected, suspended in 50 mM Tris-HCl buffer (pH=7.4), homogenized on ice by a homogenizer for 20 seconds 10 times, and centrifuged at 4° C., 1000 g for 10 min. The supernatant was collected, and the above steps were repeated. The supernatant was centrifuged (33800 g; centrifuge purchased from Thermo, rotor model: A27-8×50) at 4° C. for 60 min, and the precipitate was resuspended in Tris buffer (50 mM Tris-HCl, 10 mM MgCl2, 0.5 mM EDTA, 10% glycerol). The precipitate was the cell membrane. Protein content was determined by BCA (Bicinchoninic Acid) method (BCA kit from Pierce (Annoron)). The cell membrane was prepared into 1 ml aliquot and stored at −80° C.
Radioligand competition binding assay: the assay was carried out in a 200 μL system (96-well plate from Agilent) with 100 μL of cell membrane. The concentration of ^3H-flunitazepam (from PerkinElmer, lot: NET567250 UC) was 1 nM and the concentration of test compound was in the range 1×10^−5-10^−6 M. Flumazenil (from Tocris; lot: 1318) was used as a control. 1 μL of 2 mM flumazenil (final concentration 10 μM) was added to the Low signal control well (Low control, LC) and 1 μL of DMSO (from Sigma aldrich, lot: 472301) was added to the High signal control well (High control, HC). The final target membrane protein concentration was 5 μg/well. All test compound sample stocks were 10 mM DMSO solutions. The working concentration of the samples is to dilute all samples with DMSO to 0.2 mM, and then perform 4-fold continuous gradient dilution for a total of 8 concentration gradients. The 96-well plate was sealed with a plate sealing membrane and then incubated on a shaker at room temperature for 1 hour. Meanwhile, GF/C filter plate was soaked with a plate soaking buffer (0.3% PEI, polyethyleneimine, purchased from Sigma aldrich, model: P314, stored at 4° C.) for at least 0.5 hours. After completion of binding incubation, the cells were collected with a cell collector onto the GF/C filter plate and washed four times with a plate washing buffer (50 mM Tris-HCl, pH 7.4, stored at 4° C.). […]

[2] = target: human α5β3γ2 receptor (α5-GABAA receptor) (Homo sapiens (Human), UniProt P18507+P31644); test: Radioligand (3H-flunitrazepam) competition binding assay, BZD site; settings: 3H-flunitrazepam 1 nM; HEK293 membranes expressing human α5β3γ2
Outline: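 Membranes from HEK293 cells stably expressing human α2β3γ2 or α5β3γ2 (5 μg protein/well) incubated 1 h at room temperature with 1 nM ^3H-flunitrazepam and 8-point 4-fold compound dilutions; nonspecific binding defined with 10 μM flumazenil. Filter-bound radioactivity counted; Ki derived from fitted IC50.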

[3] = Stability in simulated gastric fluid (SGF); assay type: physicochemical; settings: 37° C., 1000 rpm
Description: Simulated gastric fluid (SGF), Manufacturer: Dongguan Chuangfeng Automation Technology Co., Ltd.; Product model: CF-006.
Oscillating constant temperature metal bath, Model: Thermo; Manufacturer: Digital Skaking Drybath.
Temperature: 37° C.; rotating speed: 1000 rpm; sampling time: 0, 4 hours.
Chromatographic column: Welch Xtimate C18 3.0×100 mm, 5 μm. Mobile phase: A: 0.04% trifluoroacetic acid (TFA)/H2O (v/v), B: acetonitrile (ACN). Gradient elution was performed according to the following table, flow rate: 1.0 mL/min; injection volume: 5 μL; column temperature: 35° C.; wavelength: 254 nm.
• (a) preparation of 0.04% TFA/H2O: 400 μL of TFA was measured, placed into 1 L of H2O, and homogenously mixed; • (b) Sample stock solution: about 3 mg of test sample was weighed, and prepared into a stock solution of 10 mmol/L using DMSO; • (c) 50 μL of the sample stock solution was taken, placed into a 5 mL volumetric flask, made up to the scale with the addition of SGF, and homogenously mixed. 400 μL of the solution was taken, four samples in parallel, and shaken at 1000 rpm and 37° C.; • (d) every two samples were taken after 0 and 4 hours respectively, 400 μL of acetonitrile was added, and homogenously mixed, followed by liquid phase injection, and calculation of the change % of the main peak area in the solution after 4 hours relative to 0 hour, two average value reports being taken at each time point.

Row | Selectivity α2 ki/α5 ki [1] [folds] | pKi [2] | Residual content in simulated gastric juice after 4 hours (compared with 0 hour content) [3] | SMILES
1 | 39.2 | 8.17 |  | Cc1onc(-c2ccc(F)cc2)c1COc1cnc(-c2nnc3n2CCCOC3)cn1 [Compound 24, 3-(5-((3-(4-fluorophenyl)-5-methylisoxazol-4-yl)methoxy)pyrazin-2-yl)-6,7-dihydro-5H,9H-[1,2,4]triazolo[3,4-c][1,4]oxazepane]
2 | 86.7 | 8.01 | 91% (4 hours) | Cc1onc(-c2ccc(F)cc2)c1COc1cnc(-c2nnc3n2CCOCC3)cn1 [Compound 33, 3-(5-((3-(4-fluorophenyl)-5-methylisoxazol-4-yl)methoxy)pyrazin-2-yl)-5,6,8,9-tetrahydro-[1,2,4]triazolo[4,3-d][1,4]oxazepane]
3 | 48.6 | 8.27 |  | Cc1onc(-c2ccc(F)cc2)c1COc1ccc(N2CCn3ccnc3C2=O)nn1 [Compound 37, 7-(6-((3-(4-fluorophenyl)-5-methylisoxazol-4-yl)methoxy)pyridazin-3-yl)-6,7-dihydroimidazo[1,2-a]pyrazin-8(5H)-one]
4 | 122.2 | 8.65 | 75% (4 hours) | Cc1onc(-c2ccc(F)cc2)c1COc1ccc(-c2cc3n(c(=O)n2)C[C@]24CO[C@H](CN32)C4)cn1 [Compound 38]
5 | 75.8 | 9.00 | 35% (4 hours) | Cc1onc(-c2ccc(F)cc2)c1COc1ccc(-c2cc3n(c(=O)n2)CCN3C)cn1 [Compound 41, 7-(6-((3-(4-fluorophenyl)-5-methylisoxazol-4-yl)methoxy)pyridin-3-yl)-1-methyl-2,3-dihydroimidazo[1,2-c]pyrimidin-5(1H)-one]

The remaining lines, values behind:

Row | SMILES | Selectivity α2 ki/α5 ki [1] [folds] | pKi [2] | Residual content in simulated gastric juice after 4 hours (compared with 0 hour content) [3]
6 | Cc1onc(-c2ccc(F)cc2)c1COc1ccc(-c2nnc3n2CCS(=O)(=O)C3)cn1 [Compound 7, 3-(6-((3-(4-fluorophenyl)-5-methylisoxazol-4-yl)methoxy)pyridin-3-yl)-5,6-dihydro-8H-[1,2,4]triazolo[3,4-c][1,4]thiazine 7,7-dioxide] | 11.01 | 8.67 | 
7 | Cc1onc(-c2ccc(F)cc2)c1COc1ccc(N2CCN3CCNC(=O)C3C2)nn1 (centres unmarked) [Compound 10, 8-(6-((3-(4-fluorophenyl)-5-methylisoxazol-4-yl)methoxy)pyridazin-3-yl) hexahydro-2H-pyrazino[1,2-a]pyrazin-1 (6H)-one] | 63.3 | 8.49 | 
8 | Cc1onc(-c2ccc(F)cc2)c1COc1ccc(-c2nnc3n2CCOC3)cn1 [Compound 17, 3-(6-((3-(4-fluorophenyl)-5-methylisoxazol-4-yl)methoxy)pyridin-3-yl)-5,6-dihydro-8H-[1,2,4]triazolo[3,4-c][1,4]oxazine] | 23.1 | 8.59 | 65% (4 hours)
9 | Cc1onc(-c2ccc(F)cc2)c1COc1ccc(-c2nnc3n2CCOC3)nn1 [Compound 18, 3-(6-((3-(4-fluorophenyl)-5-methylisoxazol-4-yl)methoxy)pyridazin-3-yl)-5,6-dihydro-8H-[1,2,4]triazolo[3,4-c][1,4]oxazine] | 41.4 | 9.49 | 51% (4 hours)
10 | Cc1onc(-c2ccc(F)cc2)c1COc1cnc(-c2nnc3n2CCOC3)cn1 [Compound 19, 3-(5-((3-(4-fluorophenyl)-5-methylisoxazol-4-yl)methoxy)pyrazin-2-yl)-5,6-dihydro-8H-[1,2,4]triazolo[3,4-c][1,4]oxazine] | 93.8 | 8.79 | 94% (4 hours)
11 | Cc1onc(-c2ccc(F)cc2)c1COc1cnc(-c2nnc3n2CCC3)cn1 [Compound 23, 4-(((5-(6,7-dihydro-5H-pyrrolo[2,1-c][1,2,4]triazol-3-yl)pyrazin-2-yl)oxy)methyl)-3-(4-fluorophenyl)-5-methylisoxazole] | 90.2 | 8.51 | 80% (4 hours)
